Results reported in patent US9803220B2, “Production of alkenes from 3-hydroxy-1-carboxylic acids via 3-sulfonyloxy-1-carboxylic acids” (Scientist of Fortune S.A., priority 2012, dated 2017).

How the values were obtained:
[1] = Thermal conversion of 3-sulfonyloxybutyrate to propylene, headspace GC-FID; assay type: physicochemical; conditions: 50 mM substrate, 50 mM Tris-HCl pH 7.5, 0 to 90 h
Method: The thermal conversion assays containing, in a total volume of 0.5 mL, 50 mM 3-sulfonyloxybutyrate and 50 mM Tris-HCl pH 7.5, were incubated in 2 ml sealed glass vials (Interchim) at 37° C. and 65° C. with shaking. Propylene production at different incubation times (from 0 to 90 h) was analyzed as follows. One ml of the gaseous phase was collected and injected into a gas chromatograph Varian 430-GC equipped with FID detector. Nitrogene was used as carrier gas with a flow rate of 1.5 ml/min. Volatile compounds were separated on RT-Alumina Bond/Na2SO4 column (Restek) using an isothermal mode at 130° C. Gaseous product of thermal decomposition of disodium (R,S)-3-sulfonyloxybutyrate was identified by comparison with propylene standard (Sigma, Aldrich). Under these GC conditions, the retention time for propylene was 3.2 min. […] (FIGS. 6 and 7).

[2] = system: sulfotransferase CurM (PKS ST); assay: Sulfotransferase activity assay, sulfurylation of 3-hydroxybutyrate with PAPS, MS detection; assay type: biochemical, Moorea producens (formerly Lyngbya majuscala) 19L; conditions: 5 mM (R,S)-3-hydroxybutyrate, 5 mM PAPS, 5 mg/ml enzyme, 1.5 hours at 37° C., pH 7.5
Source text: Sequence of sulfotransferase domain of polyketide synthase CurM (PKS ST) inferred from the genome of Moorea producens (formerly Lyngbya majuscala) 19L was generated by oligonucleotide concatenation to fit the codon usage of E. coli. A stretch of 6 histidine codons was inserted after the methionine initiation codon to provide an affinity tag for purification. The gene thus synthesized was cloned in a pET25b(+) expression vector (the vectors were constructed by GENEART AG). After transformation of the E. coli strain BL21 (DE3), the protein was produced according to the procedure described in Example 1 and sulfotransferase activity was assayed under the following conditions
5 mM (R,S)-3-hydroxybutyrate
5 mg/ml purified sulfotransferase (ST) CurM.
Control reaction was performed using the same reaction mixture without addition of the enzyme. The assays were incubated for 1.5 hours at 37° C. An aliquot of 200 μl of each assay was then removed, filtered through a 0.45 μm filter and the filtrated solution was transferred into a clean vial. MS analyses were performed in negative electrospray mode by direct injection of sample using PE SCIEX API 2000 quadrupole instrument. The presence of 3-sulfonyloxybutyrate was evaluated. […] The peak at m/z=182.8 was assigned to mono-deprotonated form of 3-sulfonyloxybutyrate, [M-H]^−. […]

SMILES | propylene production by thermal conversion ([1]; 37° C.) | propylene production by thermal conversion ([1]; 37° C., listed as sulfonylbutyrate) | propylene production by thermal conversion ([1]; 65° C.) | transfer of the sulfate group from PAPS onto hydroxyl group (formation of 3-sulfonyloxybutyrate) [2]
CC(CC(=O)[O-])OS(=O)(=O)[O-].[Na+].[Na+] (racemic) [disodium (R,S)-3-sulfonyloxybutyrate, Disodium (R,S)-3-sulfonyloxybutyrate] | Significant production of propylene | already occurs | Significant production of propylene | –
CC(O)CC(=O)O (stereo not shown) [3-hydroxybutyrate] | – | – | – | catalyzes transfer of the sulfate group
